Measurements from patent US20160130257A1, “Macrocyclic proteasome inhibitors” (BROWN UNIVERSITY, priority 2013, published 2016).
Where two headings read alike, the source gives them in different places.

Experiments:
[1] = biological target: Mycobacterium tuberculosis 20S peptidase (mtb 20S) (Mycobacterium tuberculosis, UniProt P9WHT9)
[2] = system: non-heme chloroperoxidase SCO0456 gene transcription; experiment: Peroxidase gene (SCO0456) transcription assay of proteasome inhibition in S. coelicolor; assay type: cell-based, Streptomyces coelicolor; details: for transcription of the proteasome-dependent peroxidase gene: S. coelicolor wild-type, RT-PCR / reporter
[3] = system: 60 different human tumor cell lines; assay type: cell-based
Source text: The In Vitro Cell Line Screening Project (IVCLSP) is a dedicated service providing direct support to the DTP anticancer drug discovery program. The screen utilizes 60 different human tumor cell lines, representing leukemia, melanoma and cancers of the lung, colon, brain, ovary, breast, prostate, and kidney. IVCLSP is unique because the complexity of a 60 cell line dose response produced by a given compound results in a biological response pattern, which can be utilized in pattern recognition algorithms. Using the pattern recognition algorithms, it is possible to assign a putative mechanism of action to a test compound, or to determine that the response pattern is unique and not similar to that of any of the standard prototype compounds included in the NCI database. The methodology of the in vitro cancer screen is available from the NIH.

[4] = biological target: mycobacterial proteasome (Mycobacterium tuberculosis, UniProt P9WHT9); details: cited from earlier work
mycobacterial proteasome, sequence (P9WHT9 58-291): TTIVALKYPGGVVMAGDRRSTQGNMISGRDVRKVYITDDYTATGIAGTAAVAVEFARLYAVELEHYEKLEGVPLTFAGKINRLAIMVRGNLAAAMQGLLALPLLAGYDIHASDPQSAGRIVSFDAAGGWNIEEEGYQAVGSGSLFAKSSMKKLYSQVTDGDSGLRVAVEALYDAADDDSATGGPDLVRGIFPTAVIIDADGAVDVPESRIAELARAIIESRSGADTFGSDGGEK
mycobacterial proteasome, sequence (P9WHU1 whole entry partner): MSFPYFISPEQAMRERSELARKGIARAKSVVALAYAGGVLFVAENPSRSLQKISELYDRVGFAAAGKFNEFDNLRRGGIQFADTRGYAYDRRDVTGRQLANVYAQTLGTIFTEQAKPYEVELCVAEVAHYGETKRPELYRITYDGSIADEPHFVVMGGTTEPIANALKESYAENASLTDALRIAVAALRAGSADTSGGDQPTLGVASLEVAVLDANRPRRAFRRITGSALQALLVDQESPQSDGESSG

Mycobacterium tuberculosis 20S peptidase (mtb 20S), sequence (P9WHT9 58-291): as the sequence (P9WHT9 58-291) above
Mycobacterium tuberculosis 20S peptidase (mtb 20S), sequence (P9WHU1 whole entry partner): as the sequence (P9WHU1 whole entry partner) above

| Compound | IC50 [1] [nM] | selective inhibition of M. tuberculosis proteasome compared to human proteasome (in words, from ratio of IC50 values) [1] | selectivity for the mycobacterial proteasome compared to the human enzyme [1] [fold] | selectivity of M. tuberculosis proteasome inhibition compared to Syringolin B [1] | transcription of the proteasome-dependent peroxidase gene [2] | inhibition of proteasomes (in words) [4] | other results |
| --- | --- | --- | --- | --- | --- | --- | --- |
| COC(=O)C(NC(=O)N1CCCC1C(=O)NC1CCCCNC(=O)C=CC(Cc2c[nH]c3ccccc23)NC1=O)C(C)C (stereo not drawn) [Compound O] | 2670 | selectively inhibits | 13.4 | more than 1,900 times |  |  |  |
| COC(=O)C(NC(=O)NCC(=O)NC1CCCCNC(=O)C=CC(Cc2c[nH]c3ccccc23)NC1=O)C(C)C (stereo not drawn) [Compound P] | 0.114 | selectively inhibits | 45.6 | more than 6,500 times | induced transcription of the peroxidase reporter gene |  | selectivity for M. tuberculosis proteasome than human proteasome [1]: 46 times; toxicity to human cells [3]: not toxic to human cells; killing of cancer cells ([3]; 60 cancer cell lines): does not kill cancer cells; inhibition of cancer cell proteasomes ([3]; inferred from 60 cell line screen): does not inhibit cancer cell proteasomes |
| CCCCCCCCC[C@@H](O)CC(=O)N[C@@H](CC(N)=O)C(=O)N[C@@H](CCC(N)=O)C(=O)N[C@H](C=O)CC(C)C [Fellutamide B] |  |  |  |  |  | inhibit the mycobacterial proteasomes |  |
| CC(C)C1/C=C\C(=O)NCCCCC(NC(=O)C(NC(=O)NC(C(=O)O)C(C)C)C(C)C)C(=O)N1 (stereo not drawn) [Syringolin B] |  |  |  |  |  |  | SCO0456 expression (gel electrophoresis of RNA samples) ([2]; wild-type S. coelicolor, 150 μg/ml, 5 hours, 30° C.): up regulated |
| CC(C)C[C@H](NC(=O)[C@H](Cc1ccccc1)NC(=O)c1cnccn1)B(O)O [bortezomib, Bortezomib] |  |  |  |  | significantly up-regulated | inhibit the mycobacterial proteasomes | inhibition of proteasomes (in words) ([4]; listed as Bortezomib): inhibits both bacterial and human proteasomes |
